{"source": "patent US20070059360A1", "about": "“WATER-DISPERSIBLE ANTI-RETROVIRAL PHARMACEUTICAL COMPOSITIONS” (priority 2005, published 2007)", "origin": "cited, not measured here", "molecular_target": "HIV reverse transcriptase (Human immunodeficiency virus type 1 group M subtype B, UniProt P04585)", "conditions": "in vitro; reported by S. A. Riddler, et al", "data": [{"smiles": "Cc1cn([C@H]2C=C[C@@H](CO)O2)c(=O)[nH]c1=O", "note": "[Stavudine, 2′,3′-didehydro-3′-deoxythymidine]", "values": [{"measurement": "Inhibition of HIV reverse transcriptase", "value": "potent inhibitor"}]}]}
